According to EP3120851A1, “4-AMINO-6-(2,6-DICHLOROPHENYL)-8-METHYL-2-(PHENYLAMINO)-PYRIDO[2,3-D]PYRIMIDIN-7(8H)-ONE FOR TREATMENT OF SOLID CANCERS” (Pangaea Biotech S.L., priority 2015, dated 2017):

Legend:
Assay in all cases: radiometric protein kinase assay (33PanQinase Activity Assay)
Assay type in all cases: biochemical
Settings in all cases: singlicate, read-out: residual activity
[1] = target: T1, ABL2 (Homo sapiens, UniProt P42684)
T1 construct: GST or His (not specified per kinase); purchased ProQinase (panel service); host or cells: Sf9 insect cells or E. coli
Protocol: (§1) In a first experiment, the kinase inhibition profile of the compound of formula (1) was evaluated at Proqinase (http://www.proqinase.com) by measuring residual activity values at a concentration of 10 µM of the test compound in singlicate in front of the following kinases: ABL2, EPHA3, CSF1-R, DDR2 wt, DDR2 N456 S, EGF-R d746-750, EGF-R d747-752/P753S, EGF-R G719C, EGF-R G719S, EGF-R L858R, EGF-R L861Q, EGF-R wt, EPHA1, EPHA2, EPHB1, ERBB4, LCK, MINK1, RAF1 Y340D/Y341D (untagged), RIPK2, STK17A. In a second experiment, the kinase inhibition profile of the compound of formula (1) was evaluated at Proqinase (http://www.proqinase.com) by measuring residual activity values at a concentration of 0.5 and 10 µM of the test compound in singlicate in front of a panel of 300 kinases using the following protocol:
(§2) The compounds were dissolved to 1 x 10^-03 M stock solutions in 100% DMSO. Subsequently, 100 µl of each stock solution were transferred into wells A3-F12 of a microtiter plate ("master plate"). Wells A1-F2 were filled with 100 µl 100% DMSO as controls. 5 x 10 µl of the master plate were aliquoted into 5 copy plates, which were stored at -20° Celsius until use. For the testing of each group of up to 8 kinases, one copy plate was used.
(§3) In the process, 90 µl H2O were added to each well of a copy plate. To minimize precipitation, the H2O was added to each well only a few minutes before the transfer of the compound solutions into the assay plates. The plate was shaken thoroughly, resulting in a "compound dilution plate" with a compound concentration of 1 x 10^-04 M/10 % DMSO. This plate was used for the transfer of 5 µl compound solution into the assay plates. The final volume of the assay was 50 µl. All compounds were tested at 1 x 10^-05 M in singlicate. The final DMSO concentration in the reaction cocktails was 1 % in all cases. The compound dilution plates were disposed at the end of each working day.
(§4) A radiometric protein kinase assay (^33PanQinase® Activity Assay) was used for measuring the kinase activity of the corresponding protein kinases. All kinase assays were performed in 96-well FlashPlatesTM from Perkin Elmer (Boston, MA, USA) in a 50 µl reaction volume. The reaction cocktail was pipetted in 4 steps in the following order: • 10 µl of non-radioactive ATP solution (in H2O) • 25 µl of assay buffer/ [γ-33P]-ATP mixture • 5 µl of test sample in 10% DMSO • 10 µl of enzyme/substrate mixture
(§5) The protein kinase reaction cocktails were incubated at 30°C for 60 minutes. The reaction was stopped with 50 µl of 2 % (v/v) H3PO4, plates were aspirated and washed two times with 200 µl 0.9 % (w/v) NaCl. All assays were performed with a BeckmanCoulter Biomek 2000/SL robotic system. Incorporation of ^33Pi (counting of "cpm") was determined with a microplate scintillation counter (Microbeta, Wallac).
(§6) All protein kinase assays were performed with a BeckmanCoulter Core robotic system.
(§7) All protein kinases provided by ProQinase were expressed in Sf9 insect cells or in E.coli as recombinant GST-fusion proteins or His-tagged proteins. All kinases were produced from human cDNAs and purified by either GSH-affinity chromatography or immobilized metal. Affinity tags were removed from a number of kinases during purification. The purity of the protein kinases was examined by SDS-PAGE/Coomassie staining, the identity was checked by mass spectroscopy.
(§8) Kinases from external vendors (CAR = Carna Biosciences Inc.; INV = Life Technologies (Invitrogen Corporation); MIL = Merck-Millipore (Millipore Corporation)) were expressed, purified and quality-controlled by virtue of the vendors readings.
(§9) For each kinase, the median value of the cpm of six wells of column 1 of each assay plate was defined as "low control" (n=6). This value reflects unspecific binding of radioactivity to the plate in the absence of a protein kinase but in the presence of the substrate. […]

[2] = target: T2, EGF-R G719C (Homo sapiens, UniProt P00533, G719C)
T2 construct: GST or His (not specified per kinase); purchased ProQinase (panel service); host or cells: Sf9 insect cells or E. coli
Protocol: as §1, §2, §3, §4, §5, §6, §7, §8, §9

[3] = target: T3, EGF-R d746-750 (Homo sapiens, UniProt P00533, DEL746-750)
T3 construct: GST or His (not specified per kinase); purchased ProQinase (panel service); host or cells: Sf9 insect cells or E. coli
Protocol: as §1, §2, §3, §4, §5, §6, §7, §8, §9

[4] = target: T4, EPHA2 (Homo sapiens, UniProt P29317)
T4 construct: GST or His (not specified per kinase); purchased ProQinase (panel service); host or cells: Sf9 insect cells or E. coli
Protocol: as §1, §2, §3, §4, §5, §6, §7, §8, §9

[5] = target: T5, EPHA3 (Homo sapiens, UniProt P29320)
T5 construct: GST or His (not specified per kinase); purchased ProQinase (panel service); host or cells: Sf9 insect cells or E. coli
Protocol: as §1, §2, §3, §4, §5, §6, §7, §8, §9

[6] = target: T6, EPHB1 (Homo sapiens, UniProt P54762)
T6 construct: GST or His (not specified per kinase); purchased ProQinase (panel service); host or cells: Sf9 insect cells or E. coli
Protocol: as §1, §2, §3, §4, §5, §6, §7, §8, §9

T5 sequence (P29320 21-983): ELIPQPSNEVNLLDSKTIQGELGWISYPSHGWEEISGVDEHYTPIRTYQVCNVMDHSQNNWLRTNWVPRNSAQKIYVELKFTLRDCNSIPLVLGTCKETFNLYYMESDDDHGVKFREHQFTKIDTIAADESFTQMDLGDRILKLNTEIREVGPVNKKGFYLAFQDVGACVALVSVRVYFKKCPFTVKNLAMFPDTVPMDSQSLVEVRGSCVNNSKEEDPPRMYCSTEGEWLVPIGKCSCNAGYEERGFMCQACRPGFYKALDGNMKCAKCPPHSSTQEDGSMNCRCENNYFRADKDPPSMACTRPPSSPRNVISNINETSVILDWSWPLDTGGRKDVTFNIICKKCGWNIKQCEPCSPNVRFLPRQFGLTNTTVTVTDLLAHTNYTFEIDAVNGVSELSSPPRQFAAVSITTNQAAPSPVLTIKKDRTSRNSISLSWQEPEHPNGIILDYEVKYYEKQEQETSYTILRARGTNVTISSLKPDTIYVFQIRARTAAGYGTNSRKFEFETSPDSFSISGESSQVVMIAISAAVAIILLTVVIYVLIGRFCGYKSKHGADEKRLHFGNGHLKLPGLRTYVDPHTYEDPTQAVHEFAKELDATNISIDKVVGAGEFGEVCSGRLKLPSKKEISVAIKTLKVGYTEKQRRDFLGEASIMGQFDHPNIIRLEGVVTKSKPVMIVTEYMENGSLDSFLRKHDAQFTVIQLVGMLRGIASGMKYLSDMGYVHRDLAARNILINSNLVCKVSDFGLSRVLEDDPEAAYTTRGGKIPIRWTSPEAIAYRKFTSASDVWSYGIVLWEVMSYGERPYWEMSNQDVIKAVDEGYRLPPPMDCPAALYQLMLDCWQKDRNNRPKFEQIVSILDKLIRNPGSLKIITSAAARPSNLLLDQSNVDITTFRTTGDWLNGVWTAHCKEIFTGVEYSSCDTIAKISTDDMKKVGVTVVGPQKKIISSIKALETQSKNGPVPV
T4 sequence (P29317 24-976): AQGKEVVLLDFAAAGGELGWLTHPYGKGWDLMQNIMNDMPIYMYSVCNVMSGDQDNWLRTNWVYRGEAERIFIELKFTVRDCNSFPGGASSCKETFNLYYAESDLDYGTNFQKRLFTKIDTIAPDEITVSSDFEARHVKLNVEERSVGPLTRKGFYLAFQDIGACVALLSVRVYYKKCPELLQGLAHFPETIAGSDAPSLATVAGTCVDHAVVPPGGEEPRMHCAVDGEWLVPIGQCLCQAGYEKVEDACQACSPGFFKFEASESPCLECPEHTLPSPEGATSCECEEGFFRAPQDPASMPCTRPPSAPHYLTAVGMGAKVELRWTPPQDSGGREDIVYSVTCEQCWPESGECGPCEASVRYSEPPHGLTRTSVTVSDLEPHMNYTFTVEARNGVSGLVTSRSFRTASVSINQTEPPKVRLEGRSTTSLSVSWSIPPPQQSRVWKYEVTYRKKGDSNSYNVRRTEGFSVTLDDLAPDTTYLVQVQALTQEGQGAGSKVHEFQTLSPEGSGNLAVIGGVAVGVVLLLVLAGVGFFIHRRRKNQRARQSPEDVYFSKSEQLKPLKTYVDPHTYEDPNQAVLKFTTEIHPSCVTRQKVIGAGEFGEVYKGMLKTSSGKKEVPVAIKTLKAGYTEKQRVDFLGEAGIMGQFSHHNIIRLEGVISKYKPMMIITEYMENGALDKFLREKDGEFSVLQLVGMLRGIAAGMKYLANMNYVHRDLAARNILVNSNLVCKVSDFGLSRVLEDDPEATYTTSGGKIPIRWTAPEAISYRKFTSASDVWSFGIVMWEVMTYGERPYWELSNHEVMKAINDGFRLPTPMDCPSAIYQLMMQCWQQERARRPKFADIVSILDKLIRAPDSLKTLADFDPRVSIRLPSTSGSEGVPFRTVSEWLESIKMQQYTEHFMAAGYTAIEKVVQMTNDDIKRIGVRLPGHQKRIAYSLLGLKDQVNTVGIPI
T3 sequence (P00533 with tags, fused parts or gaps DEL746-750 limits assumed): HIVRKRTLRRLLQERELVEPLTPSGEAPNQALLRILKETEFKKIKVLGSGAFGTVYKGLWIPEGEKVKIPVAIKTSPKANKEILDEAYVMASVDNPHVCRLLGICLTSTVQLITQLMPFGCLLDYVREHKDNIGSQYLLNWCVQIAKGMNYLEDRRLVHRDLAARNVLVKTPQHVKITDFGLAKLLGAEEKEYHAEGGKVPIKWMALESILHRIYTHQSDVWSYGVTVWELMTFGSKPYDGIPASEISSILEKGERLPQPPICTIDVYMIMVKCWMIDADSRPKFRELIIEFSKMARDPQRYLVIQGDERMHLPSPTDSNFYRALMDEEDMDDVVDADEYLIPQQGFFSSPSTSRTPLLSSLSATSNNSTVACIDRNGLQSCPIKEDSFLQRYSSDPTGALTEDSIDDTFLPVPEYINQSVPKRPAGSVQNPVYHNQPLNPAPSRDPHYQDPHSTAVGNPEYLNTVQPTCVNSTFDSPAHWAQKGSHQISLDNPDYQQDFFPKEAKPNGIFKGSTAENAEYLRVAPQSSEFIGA
T2 sequence (P00533 25-1210 G719C): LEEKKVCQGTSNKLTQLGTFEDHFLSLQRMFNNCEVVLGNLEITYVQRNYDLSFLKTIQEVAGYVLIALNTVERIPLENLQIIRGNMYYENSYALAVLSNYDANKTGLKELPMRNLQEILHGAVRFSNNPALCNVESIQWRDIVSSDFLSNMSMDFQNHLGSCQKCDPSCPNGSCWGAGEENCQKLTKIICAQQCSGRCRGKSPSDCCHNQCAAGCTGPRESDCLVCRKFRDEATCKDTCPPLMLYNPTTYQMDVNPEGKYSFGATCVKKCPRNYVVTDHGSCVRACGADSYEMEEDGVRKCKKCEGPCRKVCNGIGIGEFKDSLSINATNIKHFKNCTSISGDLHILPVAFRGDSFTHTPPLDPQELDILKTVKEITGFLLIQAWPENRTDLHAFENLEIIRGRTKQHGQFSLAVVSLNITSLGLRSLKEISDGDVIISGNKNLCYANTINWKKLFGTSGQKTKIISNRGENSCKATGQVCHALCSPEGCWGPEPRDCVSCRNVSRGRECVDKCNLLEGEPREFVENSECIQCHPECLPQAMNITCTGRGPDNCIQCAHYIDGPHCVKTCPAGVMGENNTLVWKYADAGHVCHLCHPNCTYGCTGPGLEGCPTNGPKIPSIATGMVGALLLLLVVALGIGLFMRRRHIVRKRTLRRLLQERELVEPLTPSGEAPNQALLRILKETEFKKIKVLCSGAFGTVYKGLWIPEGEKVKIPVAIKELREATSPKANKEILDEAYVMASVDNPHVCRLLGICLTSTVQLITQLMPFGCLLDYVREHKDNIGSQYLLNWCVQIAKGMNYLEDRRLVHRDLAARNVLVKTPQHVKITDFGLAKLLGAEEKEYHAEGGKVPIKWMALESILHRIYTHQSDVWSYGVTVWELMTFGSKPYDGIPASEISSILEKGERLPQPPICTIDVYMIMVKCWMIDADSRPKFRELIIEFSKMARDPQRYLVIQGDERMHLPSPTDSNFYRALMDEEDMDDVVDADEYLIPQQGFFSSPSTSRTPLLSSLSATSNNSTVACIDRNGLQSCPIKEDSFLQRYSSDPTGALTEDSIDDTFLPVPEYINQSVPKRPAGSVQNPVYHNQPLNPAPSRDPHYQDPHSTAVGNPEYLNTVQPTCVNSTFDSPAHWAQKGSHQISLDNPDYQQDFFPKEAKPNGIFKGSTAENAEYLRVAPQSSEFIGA
T6 sequence (P54762 18-984): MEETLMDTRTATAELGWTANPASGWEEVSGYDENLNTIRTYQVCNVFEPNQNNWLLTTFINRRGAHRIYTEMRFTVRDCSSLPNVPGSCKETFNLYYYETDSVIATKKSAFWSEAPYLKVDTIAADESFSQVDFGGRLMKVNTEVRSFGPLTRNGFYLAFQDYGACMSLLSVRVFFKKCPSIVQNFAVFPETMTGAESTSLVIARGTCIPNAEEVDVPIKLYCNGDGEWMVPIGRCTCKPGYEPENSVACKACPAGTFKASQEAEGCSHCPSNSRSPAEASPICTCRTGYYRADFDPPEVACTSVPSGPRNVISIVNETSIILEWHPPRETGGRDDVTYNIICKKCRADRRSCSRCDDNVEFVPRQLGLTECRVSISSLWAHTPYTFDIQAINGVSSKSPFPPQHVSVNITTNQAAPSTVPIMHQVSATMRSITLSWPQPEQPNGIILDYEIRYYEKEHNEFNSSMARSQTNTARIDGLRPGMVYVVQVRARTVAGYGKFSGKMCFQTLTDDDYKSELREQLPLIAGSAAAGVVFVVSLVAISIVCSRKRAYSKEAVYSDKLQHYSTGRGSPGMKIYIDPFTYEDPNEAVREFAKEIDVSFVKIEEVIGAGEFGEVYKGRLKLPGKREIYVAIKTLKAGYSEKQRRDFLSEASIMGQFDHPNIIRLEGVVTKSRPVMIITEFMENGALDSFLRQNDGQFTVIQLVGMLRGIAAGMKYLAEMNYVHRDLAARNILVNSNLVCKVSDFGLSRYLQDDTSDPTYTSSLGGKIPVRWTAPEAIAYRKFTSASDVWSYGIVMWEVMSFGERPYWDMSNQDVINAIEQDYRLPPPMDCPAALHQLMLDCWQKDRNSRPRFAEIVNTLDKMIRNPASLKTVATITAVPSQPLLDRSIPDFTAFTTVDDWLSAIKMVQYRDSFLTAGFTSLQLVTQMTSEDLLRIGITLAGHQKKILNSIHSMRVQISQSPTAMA

`Cn1c(=O)c(-c2c(Cl)cccc2Cl)cc2c(N)nc(Nc3ccccc3)nc21` [Compound (1), 4-amino-6-(2,6-dichlorophenyl)-8-methyl-2-(phenylamino)-pyrido[2,3-d]pyrimidin-7(8H)-one] gave a remaining activity at 0.5 µM ([1]; 0.5 µM test compound) of 44%, a remaining activity at 10 µM ([1]; 10 µM test compound) of 13% and a remaining activity at 0.5 µM ([2]; 0.5 µM test compound) of 29%. The remaining activity at 10 µM ([2]; 10 µM test compound) was 6%, the remaining activity at 0.5 µM ([3]; 0.5 µM test compound) was 28% and the remaining activity at 10 µM ([3]; 10 µM test compound) was 10%. For the same compound, the remaining activity at 0.5 µM ([4]; 0.5 µM test compound) was 54%, the remaining activity at 10 µM ([4]; 10 µM test compound) was 9% and the remaining activity at 0.5 µM ([5]; 0.5 µM test compound) was 9%. For the same compound, the remaining activity at 10 µM ([5]; 10 µM test compound) was 36%, the remaining activity at 0.5 µM ([6]; 0.5 µM test compound) was 57% and the remaining activity at 10 µM ([6]; 10 µM test compound) was 5%.
